Literature values in patent US20060058589A1, “Animal model to evaluate visceral pain perception” (priority 2002, published 2006).

Tested on: visceromotor response to duodenal distention
Details: conscious, freely moving rats; dose-dependent manner

In the case of `CN1CC[C@]23c4c5ccc(O)c4O[C@H]2[C@@H](O)C=C[C@H]3[C@H]1C5` [morphine], the “visceromotor response to duodenal distention” value is listed as “inhibited”.
